Data as given in patent publication US20050054559A1, “Compounds for sustained release of orally delivered drugs” (priority 2000, published 2005).

Legend:
[1] = Secretion in bile following oral administration to bile duct-cannulated rats; assay type: in vivo, rat; conditions: single oral dose of (4) 85.25 mg/kg
Experimental: Sustained release of gabapentin from a prodrug that is subject to enterohepatic recirculation requires that a proportion of the intact prodrug be absorbed after oral administration and subsequently secreted into the bile intact. The potential for enterohepatic recirculation of intact (4) was examined in rats with indwelling bile duct fistulae. […] Bile was collected continuously in aliquots over 24 hours. Plasma and bile samples were frozen at −80° C. until analyzed. Concentrations of (4) or gabapentin in plasma samples were deermined by LC/MS/MS as described in Example 38. Concentrations of intact […] in bile were similarly deermined by LC/MS/MS. Bile (20 μL) was diluted 1:1000 with methanol and injected directly onto the HPLC system. Concentrations of (4) in bile reached a maximum at ˜6 hours post-dosing and were sustained up to 24 hours.

[2] = biological target: T1, LBAT (Homo sapiens, UniProt Q14973); assay: Electrogenic transport in Xenopus oocytes expressing LBAT; assay type: cell-based
T1 sequence (Q14973 1-349): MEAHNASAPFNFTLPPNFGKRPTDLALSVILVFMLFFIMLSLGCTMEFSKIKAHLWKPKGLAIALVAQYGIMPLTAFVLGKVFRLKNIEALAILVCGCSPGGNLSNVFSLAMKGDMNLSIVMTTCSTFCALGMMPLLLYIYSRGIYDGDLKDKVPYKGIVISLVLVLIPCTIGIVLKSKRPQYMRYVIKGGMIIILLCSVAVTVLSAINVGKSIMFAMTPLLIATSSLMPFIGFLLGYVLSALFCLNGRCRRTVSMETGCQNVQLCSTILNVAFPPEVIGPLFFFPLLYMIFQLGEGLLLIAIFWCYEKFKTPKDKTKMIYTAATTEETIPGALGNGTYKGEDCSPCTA
Excerpt: (§1) RNA preparation: Human IBAT and LBAT Transporter cDNAs were subcloned into a modified pGEM plasmid that contains 5′ and 3′ untranslated sequences from the Xenopus β-actin gene. These sequences increase RNA stability and protein expression. Plasmid cDNA was linearized and used as template for in vitro transcription (Epicentre Technologies transcription kit, 4:1 methylated:non-methylated GTP).
(§2) Xenopus oocyte isolation. Xenopus laevis frogs were anesthetized by immersion in Tricaine ([…] in deionized water) for 15 min. Oocytes were removed and digested in frog ringer solution (90 mM NaCl, 2 mM KCl, 1 mM MgCl2, 10 mM NaHEPES, pH 7.45, no CaCl2) with 1 mg/mL collagenase (Worthington Type 3) for 80-100 min with shaking. The oocytes were washed 6 times, and the buffer changed to frog ringer solution containing CaCl2 (1.8 mM). Remaining follicle cells were removed if necessary. Cells were incubated at 16° C., and each oocyte injected with […] RNA in […] solution.
Electrophysiology measurements. Transport currents were measured 2-14 days after injection, using a standard two-electrode electrophysiology set-up (Geneclamp 500 amplifier, Digidata 1320/PCLAMP software and ADInstruments hardware and software were used for signal acquisition). Electrodes ([…]) were microfabricated using a Sutter Instrument puller and filled with 3M KCl. […]

[3] = biological target: T2, IBAT (Homo sapiens, UniProt Q12908); assay: In vitro uptake by CHO cells transfected with IBAT, evaluated by LC-MS/MS; assay type: cell-based; parameters: expressed in transfected cells; host or cells: CHO cells; conditions: 0.06 to 1000 μM, 10 min
T2 sequence (Q12908 whole entry): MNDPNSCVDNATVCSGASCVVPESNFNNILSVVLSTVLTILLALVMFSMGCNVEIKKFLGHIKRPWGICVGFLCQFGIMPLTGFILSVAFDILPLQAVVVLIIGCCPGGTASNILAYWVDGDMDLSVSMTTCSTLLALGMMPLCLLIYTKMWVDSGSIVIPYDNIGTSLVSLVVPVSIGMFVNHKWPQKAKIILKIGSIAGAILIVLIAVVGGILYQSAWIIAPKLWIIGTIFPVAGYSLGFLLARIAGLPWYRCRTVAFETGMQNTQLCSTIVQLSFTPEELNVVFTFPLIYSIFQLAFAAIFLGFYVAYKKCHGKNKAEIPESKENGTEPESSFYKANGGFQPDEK
Experimental: (§3) Active transport of (4) by the bile acid transport system was evaluated in vitro by incubation of (4) or glycocholate (control substrate) with untransfected CHO K1 cells or CHO cells transfected with either IBAT or LBAT. Cells (10^5 cells/mL) were incubated in 96 well plates with varying concentrations (0.06 to 1000 μM) of (4) or glycocholate for 10 min. Cells were then washed with Hank's Balanced Salt Solution (HBSS) and lysed and extracted by addition of 100 μL of water followed by sonication. Concentrations of (4) or glycocholate in cell extracts were determined by direct injection onto an API 2000 LC/MS/MS equipped with an Agilent 1100 binary pump and autosampler. Separation was achieved using a Keystone BDS Hypersil 2×50 mm column heated to 45° C. during the analysis. The mobile phases were: 0.1% formic acid in water (A) and 0.1% formic acid in acetonitrile (B). The gradient condition was: 5% B for 1 min, increasing to 90% B in 0.2 min, maintained for 2.8 min and returning to 5% B for 2 min. A TurboIonSpray source was used on the API 2000. The analysis was performed in the positive ion mode and MRM transitions of 466/412 and 562/154 were used in the analysis of glycocholate and (4), respectively. Ten microliters of the cell extracts were injected. Peaks were integrated using Analyst quantitation software. […]

[4] = biological target: T2, IBAT; assay: Inhibition of radiolabeled taurocholate uptake in IBAT-transfected CHO cells; assay type: cell-based; parameters: expressed in transfected cells; host or cells: CHO cells; conditions: radiolabeled competition assay in transporter-expressing CHO cells
Experimental: CHO cells transfected with either the IBAT or LBAT transporter were seeded into 96-well microtiter plates at 100,000 cells/well in 100 μL DMEM containing 10% serum, glutamine and Penstrep. After overnight incubation the media was removed and test compound (25 μL) added at 2× the final desired concentration. Tritiated taurocholate (50,000 CPM/well) was diluted with cold substrate to a final concentration of 5 μM and 25 μL/well of this mixture was added to the plate. After incubating for 1 h at room temperature the solution was removed and the plate washed 4× with PBS at 4° C. 200 μL/well of scintillant is added and the plate then read in a Wallac microbeta counter. The inhibition data is processed by standard methods to calculate an inhibition constant Ki for the test compound.

[5] = biological target: T3, LBAT (Homo sapiens, UniProt Q14973); assay: In vitro uptake by CHO cells transfected with LBAT, evaluated by LC-MS/MS; assay type: cell-based; conditions: 0.06 to 1000 μM, 10 min
T3 construct: expressed in transfected cells; host or cells: CHO cells
Experimental: as §3

[6] = biological target: T2, IBAT; assay: Electrogenic transport in Xenopus oocytes expressing IBAT; assay type: cell-based
Excerpt: as §1, §2
Electrophysiology measurements. Transport currents were measured 2-14 days after injection, using a standard two-electrode electrophysiology set-up (Geneclamp 500 amplifier, Digidata 1320/PCLAMP software and ADInstruments hardware and software were used for signal acquisition). Electrodes ([…]) were microfabricated using a Sutter Instrument puller and filled with 3M KCl. The bath was directly grounded (transporter currents were less than 0.3 μA). Bath flow was controlled by an automated perfusion system (ALA Scientific Instruments, solenoid valves).
For transporter pharmacology, oocytes were clamped at −60 to −90 mV, and continuous current measurements acquired using PowerLab Software and an ADInstruments digitizer. Current signals were lowpass filtered at 20 Hz and acquired at 4-8 Hz. All bath and drug-containing solutions were frog ringers solution containing CaCl2. Drugs were applied for 10-30 seconds until the induced current reached a new steady-state level, followed by a control solution until baseline currents returned to levels that preceded drug application. The difference current (baseline subtracted from peak current during drug application) reflected the net movement of charge resulting from electrogenic transport and was directly proportional to tranport rate. Recordings were made from a single oocyte for up to 60 min, enabling 30-40 separate compounds to be tested per oocyte. […]. Using this normalization procedure Vmax (i.e. maximal induced current) for different compounds tested on different oocytes could be compared.

## CC(CCC(=O)NCC1(CC(=O)O)CCCCC1)C1CCC2C3C(O)CC4CC(O)CCC4(C)C3CC(O)C12C (stereo not shown) [Compound (4)]
[1]; bile duct-cannulated rats
  concentrations of (4) in bile sustained up to: up to 24 hours
[1]; bile duct-cannulated rats, post-dosing
  time of maximum concentration of (4) in bile: ~6 h
[1]
  gabapentin in plasma of bile duct-cannulated rats: no gabapentin was detected
[2]
  EC50: 19 µM
[2]; relative to glycodeoxycholate
  % Max. (GDC): 38%
[3]
  Active uptake by bile acid transport system: Active uptake
[4]
  IC50: 36 µM
[5]
  Active uptake by bile acid transport system: Active uptake
[6]
  EC50: 70 µM
[6]; relative to glycodeoxycholate
  % Max. (GDC): 67%
